Data set [1] deals with Mus musculus. Briefly: Neurotoxicity in albino CF1 mouse at 100 mg/kg, ip measured after 0.5 hr. Also on record: dose 100 mg/kg, route intraperitoneal. Conditions: in vivo. In kind it is toxicity, organism-based.
In data set [2] the test system is Mus musculus. Briefly: Neurotoxicity in albino CF1 mouse at 100 mg/kg, ip measured after 0.25 hr. In kind it is toxicity, organism-based. On the set-up: dose 100 mg/kg, route intraperitoneal. Particulars: in vivo.
Data set [3] relates to Mus musculus. Briefly: Anticonvulsant activity in albino CF1 mouse assessed as protection against 32 mA current-induced seizures at 100 mg/kg, ip measured after 0.25 hr. In kind it is functional, organism-based. Also on record: dose 100 mg/kg.
Data set [4] relates to Mus musculus. Briefly: Anticonvulsant activity in albino CF1 mouse assessed as protection against maximal electroshock-induced seizures at 100 mg/kg, ip measured after 1 hr. In kind it is functional, organism-based. On the set-up: dose 100 mg/kg. In general terms: In the maximal electroshock model the usual endpoint is tonic extension of the hind limbs.
Data set [5] deals with Mus musculus. Briefly: Neurotoxicity in 32 mA current-induced seizure albino CF1 mouse model at 100 mg/kg, ip measured after 0.25 hr. In kind it is toxicity, organism-based. Also on record: dose 100 mg/kg, route intraperitoneal. Conditions: in vivo.
Data set [6] concerns Mus musculus. Briefly: Anticonvulsant activity in albino CF1 mouse assessed as protection against 32 mA current-induced seizures at 100 mg/kg, ip measured after 4 hrs. In kind it is functional, organism-based. On the set-up: dose 100 mg/kg.
The subject of data set [7] is Mus musculus. Briefly: Neurotoxicity in 32 mA current-induced seizure albino CF1 mouse model at 100 mg/kg, ip measured after 2 hrs. Conditions: in vivo. The class given is toxicity, organism-based. On the set-up: dose 100 mg/kg, route intraperitoneal.
The subject of data set [8] is Mus musculus. Briefly: Neurotoxicity in albino CF1 mouse at 100 mg/kg, ip measured after 1 hr. On the set-up: dose 100 mg/kg, route intraperitoneal. Conditions: in vivo. The class given is toxicity, organism-based.
Data set [9] relates to Mus musculus. Briefly: Anticonvulsant activity in albino CF1 mouse assessed as protection against 32 mA current-induced seizures at 100 mg/kg, ip measured after 0.5 hr. The class given is functional, organism-based. On the set-up: dose 100 mg/kg.
Data set [10] concerns Mus musculus. Briefly: Anticonvulsant activity in albino CF1 mouse assessed as protection against subcutaneous metrazol-induced seizures at 100 mg/kg, ip measured after 4 hrs. The class given is functional, organism-based. On the set-up: dose 100 mg/kg.
Data set [11] relates to Mus musculus. Briefly: Anticonvulsant activity in albino CF1 mouse assessed as protection against 32 mA current-induced seizures at 100 mg/kg, ip measured after 2 hrs. The class given is functional, organism-based. Also on record: dose 100 mg/kg.
In data set [12] the test system is Mus musculus. Briefly: Anticonvulsant activity in albino CF1 mouse assessed as protection against maximal electroshock-induced seizures at 100 mg/kg, ip measured after 0.25 hr. The class given is functional, organism-based. On the set-up: dose 100 mg/kg.
Data set [13] deals with Mus musculus. Briefly: Anticonvulsant activity in albino CF1 mouse assessed as protection against maximal electroshock-induced seizures at 100 mg/kg, ip measured after 4 hrs. On the set-up: dose 100 mg/kg. The class given is functional, organism-based.
The subject of data set [14] is Mus musculus. Briefly: Anticonvulsant activity in albino CF1 mouse assessed as protection against 32 mA current-induced seizures at 100 mg/kg, ip measured after 1 hr. Also on record: dose 100 mg/kg. In kind it is functional, organism-based.
Data set [15] relates to Mus musculus. Briefly: Neurotoxicity in albino CF1 mouse at 100 mg/kg, ip measured after 4 hrs. The class given is toxicity, organism-based. On the set-up: dose 100 mg/kg, route intraperitoneal. Particulars: in vivo.
Data set [16] deals with Mus musculus. Briefly: Anticonvulsant activity in albino CF1 mouse assessed as protection against subcutaneous metrazol-induced seizures at 100 mg/kg, ip measured after 1 hr. In kind it is functional, organism-based. On the set-up: dose 100 mg/kg.
Data set [17] has as its system Mus musculus. Briefly: Neurotoxicity in 32 mA current-induced seizure albino CF1 mouse model at 100 mg/kg, ip measured after 0.5 hr. In kind it is toxicity, organism-based. Also on record: dose 100 mg/kg, route intraperitoneal. Conditions: in vivo.
The test system of data set [18] is Mus musculus. Briefly: Anticonvulsant activity in albino CF1 mouse assessed as protection against maximal electroshock-induced seizures at 100 mg/kg, ip measured after 0.5 hr. The class given is functional, organism-based. Also on record: dose 100 mg/kg.
In data set [19] the test system is Mus musculus. Briefly: Anticonvulsant activity in albino CF1 mouse assessed as protection against subcutaneous metrazol-induced seizures at 100 mg/kg, ip measured after 0.5 hr. Also on record: dose 100 mg/kg. The class given is functional, organism-based.
Data set [20] concerns Mus musculus. Briefly: Neurotoxicity in 32 mA current-induced seizure albino CF1 mouse model at 100 mg/kg, ip measured after 4 hrs. Particulars: in vivo. On the set-up: dose 100 mg/kg, route intraperitoneal. The class given is toxicity, organism-based.
Data set [21] relates to Mus musculus. Briefly: Neurotoxicity in 32 mA current-induced seizure albino CF1 mouse model at 100 mg/kg, ip measured after 1 hr. On the set-up: dose 100 mg/kg, route intraperitoneal. Particulars: in vivo. In kind it is toxicity, organism-based.
Data set [22] relates to Mus musculus. Briefly: Anticonvulsant activity in albino CF1 mouse assessed as protection against subcutaneous metrazol-induced seizures at 100 mg/kg, ip measured after 0.25 hr. In kind it is functional, organism-based. On the set-up: dose 100 mg/kg.
For data set [23], the system named is Rattus norvegicus. Briefly: Anticonvulsant activity in Sprague-Dawley rat assessed as protection against maximal electroshock-induced seizures at 30 mg/kg, ip measured after 0.25 hr. The class given is functional, organism-based. Also on record: dose 30 mg/kg.
Data set [24] has as its system Rattus norvegicus. Briefly: Anticonvulsant activity in Sprague-Dawley rat assessed as protection against maximal electroshock-induced seizures at 30 mg/kg, ip measured after 4 hrs. The class given is functional, organism-based. On the set-up: dose 30 mg/kg.
The test system of data set [25] is Rattus norvegicus. Briefly: Neurotoxicity in MES Sprague-Dawley rat model at 30 mg/kg, ip measured after 0.25 hr. Particulars: in vivo. On the set-up: dose 30 mg/kg, route intraperitoneal. The class given is toxicity, organism-based.
Data set [26] concerns Rattus norvegicus. Briefly: Neurotoxicity in MES Sprague-Dawley rat model at 30 mg/kg, ip measured after 2 hrs. On the set-up: dose 30 mg/kg, route intraperitoneal. Conditions: in vivo. The class given is toxicity, organism-based.
Data set [27] deals with Rattus norvegicus. Briefly: Neurotoxicity in MES Sprague-Dawley rat model at 30 mg/kg, ip measured after 4 hrs. In kind it is toxicity, organism-based. Also on record: dose 30 mg/kg, route intraperitoneal. Conditions: in vivo.
The subject of data set [28] is Rattus norvegicus. Briefly: Neurotoxicity in MES Sprague-Dawley rat model at 30 mg/kg, ip measured after 1 hr. In kind it is toxicity, organism-based. Also on record: dose 30 mg/kg, route intraperitoneal. Conditions: in vivo.
The subject of data set [29] is Rattus norvegicus. Briefly: Anticonvulsant activity in Sprague-Dawley rat assessed as protection against maximal electroshock-induced seizures at 30 mg/kg, ip measured after 0.5 hr. The class given is functional, organism-based. On the set-up: dose 30 mg/kg.
In data set [30] the test system is Rattus norvegicus. Briefly: Anticonvulsant activity in Sprague-Dawley rat assessed as protection against maximal electroshock-induced seizures at 30 mg/kg, ip measured after 1 hr. The class given is functional, organism-based. Also on record: dose 30 mg/kg.
For data set [31], the system named is Rattus norvegicus. Briefly: Neurotoxicity in MES Sprague-Dawley rat model at 30 mg/kg, ip measured after 0.5 hr. Particulars: in vivo. Also on record: dose 30 mg/kg, route intraperitoneal. The class given is toxicity, organism-based.
Data set [32] has as its system Rattus norvegicus. Briefly: Anticonvulsant activity in Sprague-Dawley rat assessed as protection against maximal electroshock-induced seizures at 30 mg/kg, ip measured after 2 hrs. In kind it is functional, organism-based. On the set-up: dose 30 mg/kg.

Molecules are shown by their SMILES. Calls of active or inactive are those of the source. No cut-off for these calls is given here.

As for `O=C1NC(=O)[C@@H]2CCCN2[C@H]1c1c(F)cccc1F` (mixture of isomers), the Activity entry with Mus musculus [1], in the data set with Mus musculus [2], with Mus musculus [5], in the data set on Mus musculus [7], in the data set on Mus musculus [8] and in the data set on Mus musculus [15] was “Non-toxic” in each case. Besides, the Activity result with Mus musculus [17], in the data set on Mus musculus [20] and in the data set on Mus musculus [21] was “Non-toxic” in each case. For the same compound, the result in the data set on Mus musculus [3] and with Mus musculus [12] was Active. In addition, the outcome in the data set on Mus musculus [4], in the data set on Mus musculus [6], in the data set on Mus musculus [9], in the data set with Mus musculus [10], in the data set on Mus musculus [11] and with Mus musculus [13] was inactive. Besides, the result in the data set with Mus musculus [14], with Mus musculus [16], in the data set on Mus musculus [18], in the data set on Mus musculus [19] and in the data set on Mus musculus [22] was inactive.
As for `O=C1NC(=O)[C@H](c2cccc(C(F)(F)F)c2)N2CCC[C@H]12`, the Activity entry in the data set with Mus musculus [1], in the data set with Mus musculus [2], in the data set on Mus musculus [5], in the data set on Mus musculus [7], in the data set with Mus musculus [8] and with Mus musculus [15] was “Non-toxic” throughout. The Activity entry in the data set with Mus musculus [17], in the data set with Mus musculus [20] and in the data set on Mus musculus [21] was “Non-toxic” in each case. Further, the outcome in the data set on Mus musculus [3], in the data set with Mus musculus [4], with Mus musculus [6], with Mus musculus [9], in the data set on Mus musculus [10] and in the data set with Mus musculus [11] was inactive. The result in the data set on Mus musculus [12], in the data set with Mus musculus [13], in the data set with Mus musculus [14], with Mus musculus [16], with Mus musculus [18] and in the data set with Mus musculus [19] was inactive. In addition, the outcome in the data set on Mus musculus [22] was inactive.
Consider `O=C1NC(=O)[C@@H]2CCCN2[C@H]1c1ccccc1C(F)(F)F`, for which the Activity entry in the data set with Mus musculus [1], with Mus musculus [2], in the data set on Mus musculus [5], in the data set on Mus musculus [7], with Mus musculus [8] and in the data set on Mus musculus [15] was “Non-toxic” throughout. For the same compound, the Activity result in the data set with Mus musculus [17], in the data set on Mus musculus [20] and in the data set with Mus musculus [21] was “Non-toxic” each time. The result in the data set with Mus musculus [3], in the data set with Mus musculus [4], in the data set with Mus musculus [6], in the data set with Mus musculus [9], with Mus musculus [10] and in the data set with Mus musculus [11] was inactive. The outcome in the data set on Mus musculus [12], with Mus musculus [13], in the data set with Mus musculus [14], in the data set with Mus musculus [16], with Mus musculus [18] and with Mus musculus [19] was inactive. Further, the result in the data set with Mus musculus [22] was inactive.
Regarding `O=C1NC(=O)[C@@H]2CCCCN2[C@H]1c1cccc(C(F)(F)F)c1`, the outcome in the data set on Rattus norvegicus [23], in the data set with Rattus norvegicus [24], in the data set with Mus musculus [4], with Mus musculus [6], in the data set on Mus musculus [10] and in the data set on Mus musculus [11] was inactive. In addition, the result in the data set with Mus musculus [12], in the data set on Mus musculus [13], with Mus musculus [14], in the data set with Mus musculus [16], with Rattus norvegicus [29] and with Rattus norvegicus [30] was inactive. The outcome in the data set on Mus musculus [18], with Mus musculus [19], in the data set with Rattus norvegicus [32] and in the data set on Mus musculus [22] was inactive. Moreover, the Activity result in the data set with Mus musculus [1], in the data set on Mus musculus [2], in the data set on Rattus norvegicus [25], in the data set on Mus musculus [5], in the data set on Mus musculus [7] and in the data set on Rattus norvegicus [26] was “Non-toxic” throughout. Moreover, the Activity result in the data set on Rattus norvegicus [27], in the data set on Mus musculus [8], in the data set with Rattus norvegicus [28], in the data set on Mus musculus [15], in the data set with Mus musculus [17] and in the data set with Mus musculus [20] was “Non-toxic” each time. For the same compound, the Activity result in the data set with Rattus norvegicus [31] and in the data set with Mus musculus [21] was “Non-toxic” each time. Besides, the result in the data set on Mus musculus [3] and with Mus musculus [9] was Active.
Turning to `O=C1NC(=O)[C@@H]2CCCN2[C@H]1c1cc(F)cc(F)c1`, the Activity entry in the data set on Mus musculus [1], in the data set on Mus musculus [2], with Mus musculus [5], with Mus musculus [7], with Mus musculus [8] and in the data set on Mus musculus [15] was “Non-toxic” in each case. Moreover, the Activity entry with Mus musculus [17], in the data set on Mus musculus [20] and with Mus musculus [21] was “Non-toxic” each time. For the same compound, the result with Mus musculus [3], in the data set with Mus musculus [9], with Mus musculus [12], with Mus musculus [19] and in the data set with Mus musculus [22] was Active. Moreover, the result in the data set with Mus musculus [4], in the data set on Mus musculus [6], with Mus musculus [10], in the data set on Mus musculus [11], in the data set with Mus musculus [13] and in the data set with Mus musculus [14] was inactive. In addition, the outcome with Mus musculus [16] and with Mus musculus [18] was inactive.
